Laboratory results taken from US12077503B2, “Substituted cyclic amides and their use as herbicides” (FMC CORPORATION, priority 2015, dated 2024).

Columns and labels:
Format in all cases: in vivo
Kochia (Kochia scoparia) [1] = test: Test A preemergence; details: for Plant response rating, Kochia: 125 g ai/ha, preemergence, 0 to 100 scale (0 no effect, 100 complete control); for Kochia plant response rating (0 to 100 scale, 0 is no effect, 100 is complete control): Preemergence, 500 g ai/ha, visual injury approx. 10 d
In short: (§1)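 Visual injury scores from 0, no effect, to 100, complete control, were assigned versus untreated controls roughly 10 d after treatment in the greenhouse. Test chemicals, formulated with surfactant in a non-phytotoxic solvent, were applied to planted seeds as a preemergence soil spray or postemergence to one- to two-leaf plants 2 to 10 cm tall, in loam–sand soil.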

[2] = test system: barnyardgrass (Echinochloa crus-galli); test: Test A preemergence; details: for Plant response rating, Barnyardgrass: 125 g ai/ha, preemergence, 0 to 100 scale (0 no effect, 100 complete control); for Barnyardgrass plant response rating (0 to 100 scale, 0 is no effect, 100 is complete control): Preemergence, 500 g ai/ha, visual injury approx. 10 d
In short: as §1

[3] = test system: giant foxtail (Setaria faberii); test: Test A preemergence; details: for Plant response rating, Foxtail, Giant: 125 g ai/ha, preemergence, 0 to 100 scale (0 no effect, 100 complete control); for Foxtail, Giant plant response rating (0 to 100 scale, 0 is no effect, 100 is complete control): Preemergence, 500 g ai/ha, visual injury approx. 10 d
In short: as §1

[4] = test system: pigweed (Amaranthus retroflexus); test: Test A preemergence; details: for Plant response rating, Pigweed: 125 g ai/ha, preemergence, 0 to 100 scale (0 no effect, 100 complete control); for Pigweed plant response rating (0 to 100 scale, 0 is no effect, 100 is complete control): Preemergence, 500 g ai/ha, visual injury approx. 10 d
[5] = test system: ragweed (common ragweed, Ambrosia elatior); test: Test A preemergence; details: for Plant response rating, Ragweed: 125 g ai/ha, preemergence, 0 to 100 scale (0 no effect, 100 complete control); for Ragweed plant response rating (0 to 100 scale, 0 is no effect, 100 is complete control): Preemergence, 500 g ai/ha, visual injury approx. 10 d
In short: as §1

[6] = test system: ryegrass, Italian (Italian ryegrass, Lolium multiflorum); test: Test A preemergence; details: for Plant response rating, Ryegrass, Italian: 125 g ai/ha, preemergence, 0 to 100 scale (0 no effect, 100 complete control); for Ryegrass, Italian plant response rating (0 to 100 scale, 0 is no effect, 100 is complete control): Preemergence, 500 g ai/ha, visual injury approx. 10 d
In short: as §1

[7] = test system: Galium (catchweed bedstraw, Galium aparine); test: Test A postemergence; details: postemergence; for Galium plant response rating: 125 g ai/ha, visual injury rating on 0 to 100 scale (0 no effect, 100 complete control), approx. 10 d; for Plant response rating, Galium: 500 g ai/ha, 0 to 100 scale, 0 no effect, 100 complete control
In short: as §1

Kochia (Kochia scoparia) [8] = test: Test A postemergence; details: postemergence; for Kochia plant response rating: 125 g ai/ha, visual injury rating on 0 to 100 scale (0 no effect, 100 complete control), approx. 10 d; for Plant response rating, Kochia: 500 g ai/ha, 0 to 100 scale, 0 no effect, 100 complete control
In short: as §1

[9] = test system: barnyardgrass (Echinochloa crus-galli); test: Test A postemergence; details: postemergence; for Barnyardgrass plant response rating: 125 g ai/ha, visual injury rating on 0 to 100 scale (0 no effect, 100 complete control), approx. 10 d; for Plant response rating, Barnyardgrass: 500 g ai/ha, 0 to 100 scale, 0 no effect, 100 complete control
In short: as §1

[10] = test system: blackgrass (Alopecurus myosuroides); test: Test A postemergence; details: postemergence; for Blackgrass plant response rating: 125 g ai/ha, visual injury rating on 0 to 100 scale (0 no effect, 100 complete control), approx. 10 d; for Plant response rating, Blackgrass: 500 g ai/ha, 0 to 100 scale, 0 no effect, 100 complete control
In short: as §1

corn (Zea mays) = test: Test A postemergence; details: postemergence; for Corn plant response rating: 125 g ai/ha, visual injury rating on 0 to 100 scale (0 no effect, 100 complete control), approx. 10 d; for Plant response rating, Corn: 500 g ai/ha, 0 to 100 scale, 0 no effect, 100 complete control
In short: as §1

[11] = test system: giant foxtail (Setaria faberii); test: Test A postemergence; details: postemergence; for Foxtail, Giant plant response rating: 125 g ai/ha, visual injury rating on 0 to 100 scale (0 no effect, 100 complete control), approx. 10 d; for Plant response rating, Foxtail, Giant: 500 g ai/ha, 0 to 100 scale, 0 no effect, 100 complete control
In short: as §1

[12] = test system: pigweed (Amaranthus retroflexus); test: Test A postemergence; details: postemergence; for Pigweed plant response rating: 125 g ai/ha, visual injury rating on 0 to 100 scale (0 no effect, 100 complete control), approx. 10 d; for Plant response rating, Pigweed: 500 g ai/ha, 0 to 100 scale, 0 no effect, 100 complete control
In short: as §1

[13] = test system: ragweed (common ragweed, Ambrosia elatior); test: Test A postemergence; details: postemergence; for Ragweed plant response rating: 125 g ai/ha, visual injury rating on 0 to 100 scale (0 no effect, 100 complete control), approx. 10 d; for Plant response rating, Ragweed: 500 g ai/ha, 0 to 100 scale, 0 no effect, 100 complete control
In short: as §1

[14] = test system: ryegrass, Italian (Italian ryegrass, Lolium multiflorum); test: Test A postemergence; details: postemergence; for Ryegrass, Italian plant response rating: 125 g ai/ha, visual injury rating on 0 to 100 scale (0 no effect, 100 complete control), approx. 10 d; for Plant response rating, Ryegrass, Italian: 500 g ai/ha, 0 to 100 scale, 0 no effect, 100 complete control
In short: as §1

[15] = test system: wheat (Triticum aestivum); test: Test A postemergence; details: postemergence; for Wheat plant response rating: 125 g ai/ha, visual injury rating on 0 to 100 scale (0 no effect, 100 complete control), approx. 10 d; for Plant response rating, Wheat: 500 g ai/ha, 0 to 100 scale, 0 no effect, 100 complete control
In short: as §1

[16] = test system: barnyardgrass (Echinochloa crus-galli); test: Test B flooded paddy test; details: Flood, 500 g ai/ha; 0 to 100 scale where 0 is no effect and 100 is complete control; 13 to 15 d
In short: (§2)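 Compound goes directly into floodwater once pots are flooded 3 cm above soil, targeting plants at two leaves; the water depth is then held for the test duration. Plants sit 13–15 d in a greenhouse and are rated visually, 100 denoting complete control.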

[17] = test system: ducksalad (Heteranthera limosa); test: Test B flooded paddy test; details: Flood, 500 g ai/ha; 0 to 100 scale where 0 is no effect and 100 is complete control; 13 to 15 d
In short: as §2

rice (Oryra sativa) = test: Test B flooded paddy test; details: Flood, 500 g ai/ha; 0 to 100 scale where 0 is no effect and 100 is complete control; 13 to 15 d
In short: as §2

[18] = test system: sedge, umbrella (small-flower umbrella sedge, Cyperus difformis); test: Test B flooded paddy test; details: Flood, 500 g ai/ha; 0 to 100 scale where 0 is no effect and 100 is complete control; 13 to 15 d
In short: as §2

Row | SMILES | Plant response rating, Kochia (Kochia (Kochia scoparia) [1]) | Kochia plant response rating (0 to 100 scale, 0 is no effect, 100 is complete control) (Kochia (Kochia scoparia) [1]) | Plant response rating, Barnyardgrass [2] | Barnyardgrass plant response rating (0 to 100 scale, 0 is no effect, 100 is complete control) [2] | Plant response rating, Foxtail, Giant [3] | Foxtail, Giant plant response rating (0 to 100 scale, 0 is no effect, 100 is complete control) [3] | Plant response rating, Pigweed [4] | Pigweed plant response rating (0 to 100 scale, 0 is no effect, 100 is complete control) [4] | Plant response rating, Ragweed [5] | Ragweed plant response rating (0 to 100 scale, 0 is no effect, 100 is complete control) [5] | Plant response rating, Ryegrass, Italian [6] | Ryegrass, Italian plant response rating (0 to 100 scale, 0 is no effect, 100 is complete control) [6] | Galium plant response rating [7] | Plant response rating, Galium [7] | Kochia plant response rating (Kochia (Kochia scoparia) [8]) | Plant response rating, Kochia (Kochia (Kochia scoparia) [8]) | Barnyardgrass plant response rating [9] | Plant response rating, Barnyardgrass [9] | Blackgrass plant response rating [10] | Plant response rating, Blackgrass [10] | further results
1 | COc1ccc(NC(=O)C2C(=O)NCC2c2ccc(F)c(F)c2)c(F)c1 (stereo not drawn) [Compound 413] | 0 | 0 | 0 | 0 | 0 | 0 | 0 | 0 | 0 | 0 | 0 | 0 | 0 | 0 | 0 | 0 | 0 | 0 | 0 | 0 | Corn plant response rating (corn (Zea mays)): 0; Plant response rating, Corn (corn (Zea mays)): 0; Foxtail, Giant plant response rating [11]: 0; Plant response rating, Foxtail, Giant [11]: 0; Pigweed plant response rating [12]: 0; Plant response rating, Pigweed [12]: 0; Ragweed plant response rating [13]: 0; Plant response rating, Ragweed [13]: 0; Ryegrass, Italian plant response rating [14]: 0; Plant response rating, Ryegrass, Italian [14]: 0; Wheat plant response rating [15]: 0; Plant response rating, Wheat [15]: 0; Plant response rating, Barnyardgrass [16]: 0; Plant response rating, Ducksalad [17]: 0; Plant response rating, Rice (rice (Oryra sativa)): 0; Plant response rating, Sedge, Umbrella [18]: 0
2 | Cc1cccc(NC(=O)C2C(=O)NCC2c2cccc(OC(F)F)c2)c1F (stereo not drawn) [Compound 420] | 0 | 30 | 70 | 90 | 90 | 90 | 0 | 30 | 0 | 0 | 0 | 0 | 0 | 0 | 0 | 0 | 80 | 90 | 0 | 0 | Corn plant response rating (corn (Zea mays)): 0; Plant response rating, Corn (corn (Zea mays)): 0; Foxtail, Giant plant response rating [11]: 70; Plant response rating, Foxtail, Giant [11]: 80; Pigweed plant response rating [12]: 0; Plant response rating, Pigweed [12]: 0; Ragweed plant response rating [13]: 0; Plant response rating, Ragweed [13]: 0; Ryegrass, Italian plant response rating [14]: 0; Plant response rating, Ryegrass, Italian [14]: 0; Wheat plant response rating [15]: 0; Plant response rating, Wheat [15]: 0; Plant response rating, Barnyardgrass [16]: 65; Plant response rating, Ducksalad [17]: 85; Plant response rating, Rice (rice (Oryra sativa)): 25; Plant response rating, Sedge, Umbrella [18]: 0
3 | COc1ccc(NC(=O)C2C(=O)NCC2c2cccc(OC(F)F)c2)c(F)c1 (stereo not drawn) [Compound 425] | 0 | 0 | 0 | 20 | 40 | 70 | 0 | 0 | 0 | 0 | 0 | 0 | 0 | 0 | 0 | 0 | 20 | 30 | 0 | 0 | Corn plant response rating (corn (Zea mays)): 0; Plant response rating, Corn (corn (Zea mays)): 0; Foxtail, Giant plant response rating [11]: 20; Plant response rating, Foxtail, Giant [11]: 30; Pigweed plant response rating [12]: 0; Plant response rating, Pigweed [12]: 0; Ragweed plant response rating [13]: 0; Plant response rating, Ragweed [13]: 0; Ryegrass, Italian plant response rating [14]: 0; Plant response rating, Ryegrass, Italian [14]: 0; Wheat plant response rating [15]: 0; Plant response rating, Wheat [15]: 0; Plant response rating, Barnyardgrass [16]: 0; Plant response rating, Ducksalad [17]: 30; Plant response rating, Rice (rice (Oryra sativa)): 0; Plant response rating, Sedge, Umbrella [18]: 0
